Patent publication US20130324522A1, “INSECT ODORANT RECEPTOR ANTAGONISTS” (THE ROCKEFELLER UNIVERSITY, priority 2010, published 2013)
Read-outs that look alike come from different tables or passages of the source.

Experiments:
OR8/OR7 = OR8/OR7 (Anopheles gambiae, UniProt Q7PUT5+Q7QCC7); test: Ca2+-imaging of stable HEK293T cell line OR8/OR7; format: cell-based; conditions: for inhibition at 4 µM: HEK-293T, read-out: Percent Inhibition OR8 OR7; for IC50: Table B, read-out: IC50 OR8
Description: Full-length cDNAs for mosquito (Anopheles gambiae) odorant receptor (OR1, OR2, OR7, OR8, OR28), and fly (Drosophila melanogaster) odorant receptor (Or47a, Or83b), mouse TRP channel (TRPM8), and mouse serotonin receptor (5HT3) were obtained and subcloned into mammalian expression vectors. The following mammalian expression vectors were used:
Stable cell lines OR1/OR7, OR2/OR7, OR8/OR7, OR10/OR7, OR28/OR7 and TRPM8 were generated from HEK293T cells. HEK293T-based cell lines were cultured in DMEM supplemented with these additional antibiotics: 6 μg/mL blasticidin and 1 μg/mL puromycin, with the exception of the TRPM8 cell lines, which was cultured in DMEM supplemented with 1 μg/mL puromycin.
Cells were trypsinized and split into 35 mm dishes one day before transfection. Confluent cells (60-70%) in 35 mm dishes were transfected with 1 μg of insect OR(X) plasmids in pME18s-bla and 1 μg of OR7-pME18s-puro using lipofectamine 2000. For Anopheles odorant receptors, two plasmids were co-transfected into HEK cells: the ligand-specific receptor (OR1, OR2, OR8, OR28) and the corresponding olfactory co-receptor: OR7. Cell lines containing TRPM8 were transfected with single plasmid.
(§1) Stable cell lines were cultured in 10 cm dishes, and confluent cells (70-80%) were trypsinized. 10,000 cells/20 μL were transferred into each well of 384-well plates coated with poly-D-lysine, and cultured for 2 days. For Flip-In T-Rex cells (cell lines expressing Or47a/Or83b and 5HT3), 5 μL of tetracycline (5 μg/mL) were added 1 day before the assay. 20 μL of Ca-4 dye was loaded into each well for 1.5 hr at room temperature in the dark, and the dye-loaded plates were subjected to Ca^2+-imaging using a Hamamatsu FDSS6000 real time fluorescence plate reader. Odorant solutions (9× final concentration) were prepared by dissolving 1M stock solutions into Hank's Buffered Salt Solution (HBSS), and 30 μL of odor solution was transferred to each well in 384-well plates.
(§2) Compounds ([…] in DMSO) were stored in 384-well plates, and last two columns (32 wells total) contained only DMSO. 200 nL of small compounds were transferred into the odorant plates before the assay using the Perkin-Elmer Janus workstation. The odorant plates were spun down to remove air bubbles, and placed on the FDSS6000 plate loader, and 5 μL of odorant solution was applied to the cell plate on the FDSS6000. Ca^2+ increase was monitored with fluorescence at 525 nm by excitation at 485 nm.

mOREG = target: T1, mOREG (Mus musculus, UniProt Q920P2); test: Ca2+-imaging, control receptor mOREG; format: cell-based; conditions: for inhibition at 4 µM: read-out: Percent Inhibition mOREG; for IC50: Table B
T1 sequence (Q920P2 1-313): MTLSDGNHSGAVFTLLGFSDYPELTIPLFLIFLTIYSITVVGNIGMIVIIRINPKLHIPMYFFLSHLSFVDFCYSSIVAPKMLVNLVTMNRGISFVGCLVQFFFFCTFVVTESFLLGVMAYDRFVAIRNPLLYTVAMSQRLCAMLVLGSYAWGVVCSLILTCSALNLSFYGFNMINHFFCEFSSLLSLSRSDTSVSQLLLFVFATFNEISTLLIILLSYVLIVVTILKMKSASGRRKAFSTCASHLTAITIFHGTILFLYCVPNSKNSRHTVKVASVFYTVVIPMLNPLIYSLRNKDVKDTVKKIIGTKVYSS
Description: as §1, with “plates. The last two columns of the plate (32 wells total) were used as control wells as follows: • negative control with HBSS buffer (16 wells) • positive control with ligands (16 wells).” for “plates.”
as §2

Sequence of OR8/OR7 (Q7QCC7 whole entry): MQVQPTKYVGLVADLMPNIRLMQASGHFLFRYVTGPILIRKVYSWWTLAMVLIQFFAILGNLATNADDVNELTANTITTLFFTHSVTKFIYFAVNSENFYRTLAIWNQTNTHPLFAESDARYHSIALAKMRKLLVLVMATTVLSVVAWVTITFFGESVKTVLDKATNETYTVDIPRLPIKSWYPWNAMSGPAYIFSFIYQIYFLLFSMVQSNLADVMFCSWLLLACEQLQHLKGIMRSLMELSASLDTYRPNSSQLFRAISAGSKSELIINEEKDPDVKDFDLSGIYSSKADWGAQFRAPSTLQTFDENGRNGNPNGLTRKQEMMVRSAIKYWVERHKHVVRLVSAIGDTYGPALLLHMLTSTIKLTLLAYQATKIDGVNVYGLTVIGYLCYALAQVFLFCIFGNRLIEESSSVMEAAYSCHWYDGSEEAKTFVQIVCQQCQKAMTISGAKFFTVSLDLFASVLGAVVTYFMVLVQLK
Sequence of OR8/OR7 (Q7PUT5 entry or part of it): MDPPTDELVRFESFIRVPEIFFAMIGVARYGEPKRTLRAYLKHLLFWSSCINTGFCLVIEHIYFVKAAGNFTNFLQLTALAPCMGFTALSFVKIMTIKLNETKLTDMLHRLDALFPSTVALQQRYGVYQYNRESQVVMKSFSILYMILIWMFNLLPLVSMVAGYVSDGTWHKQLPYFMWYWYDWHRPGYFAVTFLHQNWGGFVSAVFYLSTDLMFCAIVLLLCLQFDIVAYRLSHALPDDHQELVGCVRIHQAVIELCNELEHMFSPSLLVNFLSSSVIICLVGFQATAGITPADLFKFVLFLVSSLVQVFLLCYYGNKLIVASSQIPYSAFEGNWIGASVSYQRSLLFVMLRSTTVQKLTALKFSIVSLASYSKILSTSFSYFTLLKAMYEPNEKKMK

COCCN(Cc1c(-c2ccccc2)noc1N(C)C1CCCCC1)C(=O)c1ccccc1OC [RU-0037275]
inhibition at 4 µM (OR8/OR7; compound applied at 4 μM): 51 to 74% | IC50 (OR8/OR7): > 1000 nM | inhibition at 4 µM (mOREG; compound applied at 4 μM): 26 to 50%

N#Cc1ccccc1C(=O)N1CCOC(COCc2c(Cl)cccc2Cl)C1 (centres unmarked) [RU-0050405]
inhibition at 4 µM (OR8/OR7; compound applied at 4 μM): 26 to 50% | inhibition at 4 µM (mOREG; compound applied at 4 μM): < 25%

O=C(c1ccco1)N(Cc1nccn1Cc1ccccc1Cl)CC1CC1 [RU-0047281]
inhibition at 4 µM (OR8/OR7; compound applied at 4 μM): > 75% | IC50 (OR8/OR7): > 1000 nM | inhibition at 4 µM (mOREG; compound applied at 4 μM): 26 to 50%

CCN(C)c1onc(-c2ccccc2)c1CN(CCCOC)C(=O)c1ccco1 [RU-0051926]
inhibition at 4 µM (OR8/OR7; compound applied at 4 μM): < 25% | inhibition at 4 µM (mOREG; compound applied at 4 μM): < 25%

O=C(c1cccnc1Cl)N1CCOC(COCc2c(Cl)cccc2Cl)C1 (centres unmarked) [RU-0050372]
inhibition at 4 µM (OR8/OR7; compound applied at 4 μM): < 25% | inhibition at 4 µM (mOREG; compound applied at 4 μM): < 25%

CCN(CC)c1onc(-c2ccc(F)cc2)c1CN(CCCOC)C(=O)c1ccc2c(c1)OCO2 [RU-0036983]
inhibition at 4 µM (OR8/OR7; compound applied at 4 μM): 51 to 74% | IC50 (OR8/OR7): > 1000 nM | inhibition at 4 µM (mOREG; compound applied at 4 μM): 26 to 50%

CCc1c(C(=O)NCc2cccnc2)cnn1-c1ccccc1 [RU-0048504]
inhibition at 4 µM (OR8/OR7; compound applied at 4 μM): < 25% | inhibition at 4 µM (mOREG; compound applied at 4 μM): < 25%

COCCN(Cc1c(-c2ccccc2)noc1N1CCSCC1)CC(O)COCc1ccco1 (centres unmarked) [RU-0037278]
inhibition at 4 µM (OR8/OR7; compound applied at 4 μM): 26 to 50% | inhibition at 4 µM (mOREG; compound applied at 4 μM): 26 to 50%

COc1ccc(OCC(=O)N2CCOC(Cc3ccccc3)C2)cc1 (centres unmarked) [RU-0050384]
inhibition at 4 µM (OR8/OR7; compound applied at 4 μM): < 25% | inhibition at 4 µM (mOREG; compound applied at 4 μM): < 25%

O=C(c1c(F)c(F)cc(F)c1F)N1CCOC(Cc2ccccc2)C1 (centres unmarked) [RU-0050393]
inhibition at 4 µM (OR8/OR7; compound applied at 4 μM): 26 to 50% | inhibition at 4 µM (mOREG; compound applied at 4 μM): 26 to 50%

CCOC(=O)CCC(=O)N(CCc1ccccc1)CC(=O)Nc1cc(C(C)(C)C)nn1-c1ccccc1C [RU-0072462]
inhibition at 4 µM (OR8/OR7; compound applied at 4 μM): < 25% | inhibition at 4 µM (mOREG; compound applied at 4 μM): < 25%

CCn1c(C)c(C(=O)CN(CC2CCCO2)C(=O)C2C[C@H]2c2ccccc2)c(C)c1C(=O)OC (some centres unmarked) [RU-0071273]
inhibition at 4 µM (OR8/OR7; compound applied at 4 μM): 26 to 50% | IC50 (mOREG): 100 to 1000 nM | inhibition at 4 µM (mOREG; compound applied at 4 μM): 26 to 50%

CN(C)c1ccc(C(=O)N2CCOC(COCc3ccccc3F)C2)cc1 (centres unmarked) [RU-0050325]
inhibition at 4 µM (OR8/OR7; compound applied at 4 μM): 26 to 50% | inhibition at 4 µM (mOREG; compound applied at 4 μM): < 25%

CC(C)CN(Cc1nccn1Cc1ccc(Cl)cc1Cl)C(=O)c1ccccc1F [RU-0055322]
inhibition at 4 µM (OR8/OR7; compound applied at 4 μM): < 25% | inhibition at 4 µM (mOREG; compound applied at 4 μM): 26 to 50%

C=CCN(Cc1nccn1Cc1ccc(Cl)c(Cl)c1)C(=O)c1ccccc1F [RU-0047955]
inhibition at 4 µM (OR8/OR7; compound applied at 4 μM): < 25% | inhibition at 4 µM (mOREG; compound applied at 4 μM): < 25%

COc1ccc(-c2cc(-c3ccccc3)n(C(=O)CN3CCN(Cc4ccccc4)CC3)n2)cc1 [RU-0038795]
inhibition at 4 µM (OR8/OR7; compound applied at 4 μM): < 25% | inhibition at 4 µM (mOREG; compound applied at 4 μM): 26 to 50%

CCc1cc(N2CCCC2)nc(SCc2ccc(C(=O)N3CCOCC3)o2)n1 [RU-0047568]
inhibition at 4 µM (OR8/OR7; compound applied at 4 μM): 26 to 50% | inhibition at 4 µM (mOREG; compound applied at 4 μM): 26 to 50%

COc1ccccc1C(=O)C1CCCN(C(=O)c2cccc(N3CCOCC3)c2)C1 (centres unmarked) [RU-0029350]
inhibition at 4 µM (OR8/OR7; compound applied at 4 μM): 26 to 50% | IC50 (OR8/OR7): > 1000 nM | inhibition at 4 µM (mOREG; compound applied at 4 μM): 26 to 50%

COCCN(Cc1nccn1Cc1c(F)cccc1Cl)C(=O)CCc1ccccc1 [RU-0058550]
inhibition at 4 µM (OR8/OR7; compound applied at 4 μM): < 25% | inhibition at 4 µM (mOREG; compound applied at 4 μM): 26 to 50%

CCN(CC)C(=O)Oc1ccc2c(ccn2Cc2ccccc2Cl)c1NC(=O)CCCCC(=O)OC [RU-0075446]
inhibition at 4 µM (OR8/OR7): < 25% | inhibition at 4 µM (mOREG): < 25%

CC(C)CN(Cc1nccn1Cc1c(F)cccc1Cl)C(=O)c1ccc(F)cc1 [RU-0048054]
inhibition at 4 µM (OR8/OR7; compound applied at 4 μM): < 25% | inhibition at 4 µM (mOREG; compound applied at 4 μM): < 25%

COc1cccc(NC(=O)CCC2CCN(C(=O)CSc3ccccc3)CC2)c1 [RU-0032474]
inhibition at 4 µM (OR8/OR7; compound applied at 4 μM): < 25% | inhibition at 4 µM (mOREG; compound applied at 4 μM): < 25%

CCOC(=O)C1CCCN(C(=O)c2csc(CSc3nnc(-c4cccc(OC)c4)n3-c3ccc(C)cc3)n2)C1 (centres unmarked) [RU-0071628]
inhibition at 4 µM (OR8/OR7; compound applied at 4 μM): 26 to 50% | inhibition at 4 µM (mOREG; compound applied at 4 μM): 26 to 50%

CC(C)N(Cc1nccn1Cc1c(F)cccc1Cl)C(=O)c1ccc(Cl)cc1 [RU-0055364]
inhibition at 4 µM (OR8/OR7; compound applied at 4 μM): 26 to 50% | inhibition at 4 µM (mOREG; compound applied at 4 μM): 26 to 50%

Fc1ccccc1/C=N/Nc1nc(N2CCCCC2)nc(N2CCOCC2)n1 [RU-0018338]
inhibition at 4 µM (OR8/OR7; compound applied at 4 μM): < 25% | inhibition at 4 µM (mOREG; compound applied at 4 μM): 26 to 50%

C=CCN(Cc1nccn1Cc1ccccc1F)C(=O)c1cccc(F)c1 [RU-0058232]
inhibition at 4 µM (OR8/OR7; compound applied at 4 μM): 26 to 50% | inhibition at 4 µM (mOREG; compound applied at 4 μM): 26 to 50%

COc1cccc(-c2nnc(SCCCC(=O)N3CCN(C(=O)CC(C)(C)C)C(C)C3)n2-c2ccc(C)cc2)c1 (centres unmarked) [RU-0071818]
inhibition at 4 µM (OR8/OR7; compound applied at 4 μM): < 25% | IC50 (mOREG): > 1000 nM | inhibition at 4 µM (mOREG; compound applied at 4 μM): 51 to 74%

COCCCN(Cc1c(-c2ccccc2)noc1N1CCC(C)CC1)C(=O)c1ccccc1F [RU-0036876]
inhibition at 4 µM (OR8/OR7; compound applied at 4 μM): 51 to 74% | IC50 (OR8/OR7): > 1000 nM | inhibition at 4 µM (mOREG; compound applied at 4 μM): 26 to 50%

Cc1cc(C)c(Cn2ccnc2CN(C(=O)c2ccccc2F)C(C)C)c(C)c1 [RU-0048001]
inhibition at 4 µM (OR8/OR7; compound applied at 4 μM): 26 to 50% | inhibition at 4 µM (mOREG; compound applied at 4 μM): 26 to 50%
